In patent US20230167073A1 (Teijin Pharma Limited, priority 2020, published 2023):

What follows are molecules tested against T1, Human TRPC6 (Homo sapiens, UniProt Q9Y210) (assay: Evaluation of TRPC6 channel inhibitory activity (1), FLIPR Calcium 5 Assay Kit, OAG stimulation (Compound Nos. 1-1293)). Conditions: Human TRPC6 stably-expressing cells, OAG 30 μM, FLIPR Calcium 5 Assay Kit; read-out: Inhibitory activity (pIC50 class) (converted).
T1 construct: expressed in transfected cells
T1 sequence (Q9Y210 1-931): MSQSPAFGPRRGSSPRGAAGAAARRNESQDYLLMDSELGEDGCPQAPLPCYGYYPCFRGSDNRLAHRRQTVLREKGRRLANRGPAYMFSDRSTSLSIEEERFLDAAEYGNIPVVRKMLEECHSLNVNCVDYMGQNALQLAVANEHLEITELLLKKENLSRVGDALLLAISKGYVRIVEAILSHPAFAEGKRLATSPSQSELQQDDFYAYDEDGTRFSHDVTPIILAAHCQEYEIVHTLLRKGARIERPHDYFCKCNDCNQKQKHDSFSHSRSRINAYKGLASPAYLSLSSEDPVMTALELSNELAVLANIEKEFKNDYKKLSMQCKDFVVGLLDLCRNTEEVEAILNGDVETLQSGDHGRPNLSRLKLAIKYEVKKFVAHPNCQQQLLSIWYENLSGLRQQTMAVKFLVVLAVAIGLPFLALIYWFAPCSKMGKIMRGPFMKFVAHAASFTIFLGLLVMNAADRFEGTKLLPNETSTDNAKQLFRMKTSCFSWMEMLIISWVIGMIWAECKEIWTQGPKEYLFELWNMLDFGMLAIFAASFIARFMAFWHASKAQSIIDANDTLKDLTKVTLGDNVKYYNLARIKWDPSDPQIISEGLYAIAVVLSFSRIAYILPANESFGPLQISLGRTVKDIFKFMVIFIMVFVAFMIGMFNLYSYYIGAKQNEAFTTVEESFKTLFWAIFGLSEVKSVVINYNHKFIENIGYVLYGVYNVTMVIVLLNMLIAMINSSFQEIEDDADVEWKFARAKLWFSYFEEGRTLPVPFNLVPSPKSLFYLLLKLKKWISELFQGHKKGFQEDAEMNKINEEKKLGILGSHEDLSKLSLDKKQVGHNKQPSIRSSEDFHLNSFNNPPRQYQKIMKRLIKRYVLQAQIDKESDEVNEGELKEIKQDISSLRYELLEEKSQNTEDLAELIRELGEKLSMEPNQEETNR
Type: cell-based
Procedure, shortened: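 Readout is pIC50 from four-parameter logistic fitting of inhibition of the OAG-evoked (30 μM final) fluorescence calcium signal. Human TRPC6 stable cells are dye-loaded with probenecid, and compound is applied 20 min ahead of agonist.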

| SMILES | IC50 [µM] |
| --- | --- |
| Cn1nc(N2CCOCC2)cc1C(=O)c1cc(C#N)ccc1-c1ccc(CN)cn1 [compound 1029, 4-[5-(aminomethyl)pyridin-2-yl]-3-(2-methyl-5-morpholin-4-ylpyrazole-3-carbonyl)benzonitrile] | < 0.01 |
| Cn1nc(C(C)(C)C)cc1C(=O)c1cc(C#N)ccc1-c1ncc(CCN)cn1 [compound 1031, 4-[5-(2-aminoethyl)pyrimidin-2-yl]-3-(5-tert-butyl-2-methylpyrazole-3-carbonyl)benzonitrile] | < 0.01 |
| CCN(CC)c1cc(C(=O)c2cc(C#N)ccc2-c2ncc(CCN)cn2)n(C)n1 [compound 1032, 4-[5-(2-aminoethyl)pyrimidin-2-yl]-3-[5-(diethylamino)-2-methylpyrazole-3-carbonyl]benzonitrile] | < 0.01 |
| Cc1nn(CC2CC2)cc1C(=O)c1cc(C#N)ccc1-c1ncc(CCN)cn1 [compound 1033, 4-[5-(2-aminoethyl)pyrimidin-2-yl]-3-[1-(cyclopropylmethyl)-3-methylpyrazole-4-carbonyl]benzonitrile] | < 0.01 |
| Cc1c(C(=O)c2cc(C#N)ccc2-c2ncc(CCN)cn2)cnn1CC1CC1 [compound 1034, 4-[5-(2-aminoethyl)pyrimidin-2-yl]-3-[1-(cyclopropylmethyl)-5-methylpyrazole-4-carbonyl]benzonitrile] | 0.01 to 1 |
| Cc1nn(CC2CC2)cc1C(=O)c1cc(C#N)ccc1-c1ncc(CN)cn1 [compound 1035, 4-[5-(aminomethyl)pyrimidin-2-yl]-3-[1-(cyclopropylmethyl)-3-methylpyrazole-4-carbonyl]benzonitrile] | < 0.01 |
| Cc1c(C(=O)c2cc(C#N)ccc2-c2ncc(CN)cn2)cnn1CC1CC1 [compound 1036, 4-[5-(aminomethyl)pyrimidin-2-yl]-3-[1-(cyclopropylmethyl)-5-methylpyrazole-4-carbonyl]benzonitrile] | > 1 |
| N#Cc1ccc(-c2ncc(CCN)cn2)c(C(=O)c2cnn(-c3ccccn3)c2)c1 [compound 1037, 4-[5-(2-aminoethyl)pyrimidin-2-yl]-3-(1-pyridin-2-ylpyrazole-4-carbonyl)benzonitrile] | < 0.01 |
| N#Cc1ccc(-c2ncc(CN)cn2)c(C(=O)c2cnn(-c3ccccn3)c2)c1 [compound 1038, 4-[5-(aminomethyl)pyrimidin-2-yl]-3-(1-pyridin-2-ylpyrazole-4-carbonyl)benzonitrile] | 0.01 to 1 |
| N#Cc1ccc(-c2ncc(CCN)cn2)c(C(=O)c2cnc(C(F)(F)F)s2)c1 [compound 1039, 4-[5-(2-aminoethyl)pyrimidin-2-yl]-3-[2-(trifluoromethyl)-1,3-thiazole-5-carbonyl]benzonitrile] | 0.01 to 1 |
| Cc1nc(C(=O)c2cc(C#N)ccc2-c2ncc(CCN)cn2)cc(N2CCOCC2)n1 [compound 1040, 4-[5-(2-aminoethyl)pyrimidin-2-yl]-3-(2-methyl-6-morpholin-4-ylpyrimidine-4-carbonyl)benzonitrile] | 0.01 to 1 |
| N#Cc1ccc(-c2ncc(CCN)cn2)c(C(=O)c2cnn(C3CCOCC3)c2)c1 [compound 1041, 4-[5-(2-aminoethyl)pyrimidin-2-yl]-3-[1-(oxan-4-yl)pyrazole-4-carbonyl]benzonitrile] | 0.01 to 1 |
| CN(C)c1cc(C(=O)c2cc(C#N)ccc2-c2ncc(CCN)cn2)n(C)n1 [compound 1043, 4-[5-(2-aminoethyl)pyrimidin-2-yl]-3-[5-(dimethylamino)-2-methylpyrazole-3-carbonyl]benzonitrile] | < 0.01 |
| CC(C)n1cc(C(=O)c2cc(C#N)ccc2-c2ncc(CCN)cn2)cn1 [compound 1044, 4-[5-(2-aminoethyl)pyrimidin-2-yl]-3-(1-propan-2-ylpyrazole-4-carbonyl)benzonitrile] | < 0.01 |
| CC(C)n1cc(C(=O)c2cc(C#N)ccc2-c2ncc(CN)cn2)cn1 [compound 1045, 4-[5-(aminomethyl)pyrimidin-2-yl]-3-(1-propan-2-ylpyrazole-4-carbonyl)benzonitrile] | < 0.01 |
| N#Cc1ccc(-c2ncc(CCN)cn2)c(C(=O)c2cnn(CC3CC3)c2)c1 [compound 1046, 4-[5-(2-aminoethyl)pyrimidin-2-yl]-3-[1-(cyclopropylmethyl)pyrazole-4-carbonyl]benzonitrile] | < 0.01 |
| N#Cc1ccc(-c2ncc(CN)cn2)c(C(=O)c2cnn(CC3CC3)c2)c1 [compound 1047, 4-[5-(aminomethyl)pyrimidin-2-yl]-3-[1-(cyclopropylmethyl)pyrazole-4-carbonyl]benzonitrile] | < 0.01 |

The remaining lines, values ahead:

| IC50 [µM] | SMILES |
| --- | --- |
| < 0.01 | N#Cc1ccc(-c2ncc(CCN)cn2)c(C(=O)c2cnn(-c3nccs3)c2)c1 [compound 1048, 4-[5-(2-aminoethyl)pyrimidin-2-yl]-3-[1-(1,3-thiazol-2-yl)pyrazole-4-carbonyl]benzonitrile] |
| < 0.01 | Cc1cc(C(=O)c2cc(C#N)ccc2-c2ncc(CN)cn2)cc(N2CCOCC2)n1 [compound 1049, 4-[5-(aminomethyl)pyrimidin-2-yl]-3-(2-methyl-6-morpholin-4-ylpyridine-4-carbonyl)benzonitrile] |
| 0.01 to 1 | N#Cc1ccc(-c2ncc(CN)cn2)c(C(=O)c2cnn(-c3nccs3)c2)c1 [compound 1050, 4-[5-(aminomethyl)pyrimidin-2-yl]-3-[1-(1,3-thiazol-2-yl)pyrazole-4-carbonyl]benzonitrile] |
| < 0.01 | CN(C)c1cc(C(=O)c2cc(C#N)ccc2-c2ncc(CN)cn2)n(C)n1 [compound 1051, 4-[5-(aminomethyl)pyrimidin-2-yl]-3-[5-(dimethylamino)-2-methylpyrazole-3-carbonyl]benzonitrile] |
| 0.01 to 1 | N#Cc1ccc(-c2ncc(CCN)cn2)c(C(=O)c2cnn(-c3ncccn3)c2)c1 [compound 1052, 4-[5-(2-aminoethyl)pyrimidin-2-yl]-3-(1-pyrimidin-2-ylpyrazole-4-carbonyl)benzonitrile] |
| > 1 | Cc1nc(C(=O)c2cc(C#N)ccc2-c2ncc(CN)cn2)cc(N2CCOCC2)n1 [compound 1053, 4-[5-(aminomethyl)pyrimidin-2-yl]-3-(2-methyl-6-morpholin-4-ylpyrimidine-4-carbonyl)benzonitrile] |
| < 0.01 | Cc1nn(C(C)C)cc1C(=O)c1cc(C#N)ccc1-c1ncc(CN)cn1 [compound 1054, 4-[5-(aminomethyl)pyrimidin-2-yl]-3-(3-methyl-1-propan-2-ylpyrazole-4-carbonyl)benzonitrile] |
| > 1 | N#Cc1ccc(-c2ncc(CN)cn2)c(C(=O)c2cnn(-c3ccncn3)c2)c1 [compound 1055, 4-[5-(aminomethyl)pyrimidin-2-yl]-3-(1-pyrimidin-4-ylpyrazole-4-carbonyl)benzonitrile] |
| 0.01 to 1 | N#Cc1ccc(-c2ncc(CN)cn2)c(C(=O)c2cnn(C3CCOCC3)c2)c1 [compound 1056, 4-[5-(aminomethyl)pyrimidin-2-yl]-3-[1-(oxan-4-yl)pyrazole-4-carbonyl]benzonitrile] |
| < 0.01 | N#Cc1ccc(-c2ncc(CCN)cn2)c(C(=O)c2cnn(C3CCC3)c2)c1 [compound 1057, 4-[5-(2-aminoethyl)pyrimidin-2-yl]-3-(1-cyclobutylpyrazole-4-carbonyl)benzonitrile] |
| < 0.01 | N#Cc1ccc(-c2ncc(CN)cn2)c(C(=O)c2cnn(C3CCC3)c2)c1 [compound 1058, 4-[5-(aminomethyl)pyrimidin-2-yl]-3-(1-cyclobutylpyrazole-4-carbonyl)benzonitrile] |
